Source: patent US20240360145A1, “PYRIMIDINE-2,4-DIAMINE DERIVATIVES AS WELL AS PREPARATION METHOD THEREFOR AND USE THEREOF” (LISEN THERAPEUTICS, INC., priority 2022, published 2024)

Experiments:
NCI-H1792 cells = assay: Cell viability IC50 (MTT), AMG510-resistant NCI-H1792 cells; format: cell-based; conditions: Homo sapiens, NCI-H1792 cells (KRAS G12C)
Description: Non-small cell lung cancer cell lines NCI-H1975, NCI-H1650, and NCI-H1792 were cultured in RPMI-1640 medium containing 10% fetal bovine serum and 1% penicillin-streptomycin. 1% sodium pyruvate was additionally added when culturing NCI-H1975 cells. All the cells were cultured in a constant temperature incubator containing 5% CO2 at 37° C.
(1) The cells were cultured to the logarithmic growth phase. When the confluence reached about 90%, the cells were digested with 0.25% trypsin, and complete medium was added to collect the cells. After centrifugation at room temperature, the supernatant was discarded, and the cell precipitate was resuspended with fresh complete medium. […]
(5) The medium was carefully aspirated off, 100 μl of DMSO was added to dissolve the precipitate formed by the reaction with MTT, shaking and mixing to mix the blue-violet crystals well, and the light absorbance value at 492 nm was read with a microplate reader.
(6) IC50 of the compounds for different cells was calculated based on the light absorption value of each group. Specifically, the absorbance value under treatment with different concentrations of compounds was first subtracted from the absorbance value of the blank well, and then the absorbance value of the 0 μM group was taken as 100% to calculate the cell survival rate after treatment with different concentrations of compounds. […]

PE052 primary cells = assay: Cell viability IC50 (CCK-8), primary cells PE052 from small cell lung cancer pleural effusion; format: cell-based; conditions: PE052, CCK-8
Description: (§1) (1) The pleural effusion was poured into a 15 mL or 50 mL of sterilized centrifuge tube for centrifugation. Centrifugation conditions: 800 to 1000 rpm, 5 min.
(§2) (2) The precipitate was resuspended and washed for 2 to 3 times with PBS.
(§3) (3) The cell precipitate was resuspended with complete culture medium (α-MEM medium containing 10% fetal bovine serum and 2% penicillin-streptomycin), and the flocculent matter in the pleural effusion was removed using a sterilized cell sieve.
(§4) (4) The red blood cells in the pleural effusion were removed with lymphocyte separation fluid, and the tumor cells and lymphocyte components were collected. The number of tumor cells was observed under a microscope, and the cells were inoculated.
(§5) (5) After 24 hours, the supernatant was discarded, and fresh culture medium was added for further culture.
(§6) (6) The cell growth status was observed, and it was determined based on the cell status whether the medium was required to be continuously changed to remove blood cells. When the cells grew to a density of 80% to 90%, the cells were preserved.
(§7) (1) Primary cells from lung cancer pleural effusion within 5 generations were cultured to the logarithmic growth phase. […] After centrifugation at room temperature, the supernatant was discarded, and the cell precipitate was resuspended with fresh complete culture medium. After counting, the cells were placed at room temperature for later use. The cells were inoculated into a 384-well plate at a density of 2000 cells/well with a volume of 40 μl/well. The wells at the outermost circle of the plate were not inoculated with cells, and instead, added with sterile water to reduce evaporation of the culture medium.
(§8) (2) After overnight culture of the cells, the medium was discarded, and a fresh medium containing different concentrations of compounds was added at 200 μl/well. The dilution method of the compound was as follows: first the compound with the highest concentration of 10 μM was prepared, and then the compound was diluted for 3 times in sequence. […] At the same time, a blank control group was set up, in which only an equal volume of culture medium was added without adding cells. Five replicate wells were set up for each group. The cells were placed in the incubator for further culture.
(§9) (3) After 72 hours, 8 μl of CCK-8 solution, which was double-diluted with 10 mM PBS, was added to each well, and the cells were shaken and placed in an incubator at 37° C. for further culture for 2 hours.
(§10) (4) The light absorbance value at 450 nm was read using a microplate reader, and the IC50 was calculated according to the absorbance value. The calculation method was the same as above.
(§11) (1) Sample information: PE039, PE052, and PE062 were all primary cell samples from pleural effusion of patients with small cell lung cancer, and LT015 was a primary cell sample from bronchoscopic biopsy of a patient with small cell lung cancer.
(§12) (2) CCK-8 detection was used to detect the IC50 values of different medicaments (compounds).

PE062 primary cells = assay: Cell viability IC50 (CCK-8), primary cells PE062 from small cell lung cancer pleural effusion; format: cell-based; conditions: PE062, CCK-8
Description: as §1, §2, §3, §4, §5, §6, §7, §8, §9, §10, §11, §12

DMS114 cells = assay: Cell viability IC50 (CCK-8), small cell lung cancer cell line DMS114; format: cell-based; conditions: DMS114, CCK-8
Description: (§13) Small cell lung cancer cell lines DMS114, NCI-H1688, NCI-H82, NCI-H146, and NCI-H446 cells were cultured in RPMI-1640 medium containing 10% fetal bovine serum and 1% penicillin-streptomycin. All the cells were cultured in a constant temperature incubator containing 5% CO2 at 37° C.
(§14) Small cell lung cancer is a highly heterogeneous malignant tumor, and its clinical treatment is mainly based on traditional chemotherapy (mainly platinum medicaments and etoposide). In order to study the anti-tumor activity of the compounds of the present disclosure in small cell lung cancer, the CCK-8 method was used to investigate the cell viability IC50 of compound 8 for five small cell lung cancer cell lines.

NCI-H146 cells = assay: Cell viability IC50 (CCK-8), small cell lung cancer cell line H146; format: cell-based; conditions: H146, CCK-8
Description: as §13, §14

NCI-H82 cells = assay: Cell viability IC50 (CCK-8), small cell lung cancer cell line H82; format: cell-based; conditions: H82, CCK-8
Description: as §13, §14

NCI-H1688 cells = assay: Cell viability IC50 (CCK-8), small cell lung cancer cell line H1688; format: cell-based; conditions: H1688, CCK-8
Description: as §13, §14

NCI-H446 cells = assay: Cell viability IC50 (CCK-8), small cell lung cancer cell line H446; format: cell-based; conditions: H446, CCK-8
Description: as §13, §14

PE039 primary cells = assay: Cell viability IC50 (CCK-8), primary cells PE039 from small cell lung cancer pleural effusion; format: cell-based; conditions: PE039, CCK-8
Description: as §1, §2, §3, §4, §5, §6, §7, §8, §9
(4) The light absorbance value at 450 nm was read using a microplate reader, and the IC50 was calculated according to the absorbance value. The calculation method was the same as above. […]

LT015 primary cells = assay: Cell viability IC50 (CCK-8), primary cells LT015 from small cell lung cancer bronchoscopic biopsy; format: cell-based; conditions: LT015, CCK-8
Description: (1) The tissue blocks obtained from the tumor patients were transferred from the preservation solution to the pre-cooled HBSS buffer containing antibiotics, and the tissue blocks were washed for three times with the pre-cooled HBSS buffer.
(2) Tissue was sheared on ice with sterile surgical instruments until no obvious tissue blocks are visible to the naked eye, the tissue fluid was collected into a 15 ml centrifuge tube, and this process takes about 5 to 10 minutes.
(3) Digestive enzymes (collagenase I, collagenase IV and neutral protease being mixed in a ratio of 1:1:1, a concentration of stock solution was 10 mg/ml, diluted with PBS buffer or HBSS buffer, and the use concentration was 1 mg/ml) were added to the centrifuge tube, and after mixing well by pipetting, the centrifuge tube was placed in a 37° C. constant temperature incubator for 1 to 2 hours.
(4) High-glucose medium was added to the centrifuge tube to stop digestion. After mixing well, the cell precipitate was collected by centrifugation, and resuspended with MBM medium (Advanced DMEM-F12+20 ng/ml bFGF+50 ng/ml EGF+1% ITS-X+2% B27+10 μMY-27632+1% PS). The cell suspension was placed in a Matrigel-coated 24-well plate and cultured for 5 to 7 days. When the cell density in the well plate reaches 80-90%, the cells were sub-cultured into a 6 cm cell culture dish, and when they grew to a density of 80% to 90%, the cells were cryopreserved for preservation.
(1) Primary cells from lung cancer pleural effusion within 5 generations were cultured to the logarithmic growth phase. When the confluence reached about 90%, the cells were digested with 0.25% trypsin, and complete culture medium was added to collect the cells. After centrifugation at room temperature, the supernatant was discarded, and the cell precipitate was resuspended with fresh complete culture medium. After counting, the cells were placed at room temperature for later use. The cells were inoculated into a 384-well plate at a density of 2000 cells/well with a volume of 40 μl/well. The wells at the outermost circle of the plate were not inoculated with cells, and instead, added with sterile water to reduce evaporation of the culture medium.
as §8, §9, §10, §11, §12

PE043 primary cells = assay: Cell viability IC50 (CCK-8), primary cells PE043 from lung adenocarcinoma pleural effusion resistant to EGFR-TKI; conditions: read-out: cell viability IC50; PE043, CCK-8
[1] = test system: small cell lung cancer cell line H446 cells; assay: In vivo antitumor effect in mice bearing small cell lung cancer cell line H446 cells (CDX model)
Description: H446 cells in the logarithmic growth phase were suspended in PBS solution, and then inoculated subcutaneously in the right forelimb of nude mice. The cell density was about 2×10^8 cells/mL, and each mouse was inoculated with 0.1 mL of the cell suspension, for a total of 80 mice. When the subcutaneous tumor grew to range from 50 mm^3 to 100 mm^3, 40 tumor-bearing mice were randomly divided into groups and numbered, and drug administration began.
(1) Vehicle blank control group: 5% DMSO+20% PEG 300+75% saline (normal saline);
The cycle repeated twice, and no medication for the final 6 days.
All tumor-bearing mice were killed after 20 days.

IC50 (NCI-H1792 cells) [µM]	SMILES	IC50 (PE052 primary cells) [µM]	IC50 (PE062 primary cells) [µM]	IC50 (DMS114 cells) [µM]	IC50 (NCI-H146 cells) [µM]	IC50 (NCI-H82 cells) [µM]	IC50 (NCI-H1688 cells) [µM]	IC50 (NCI-H446 cells) [µM]	IC50 (PE039 primary cells) [µM]	IC50 (LT015 primary cells) [µM]	IC50 (PE043 primary cells) [µM]	IC50 (DMS114 cells; Homo sapiens, DMS-114) [µM]	IC50 (NCI-H146 cells; Homo sapiens, NCI-H146) [µM]	IC50 (NCI-H82 cells; Homo sapiens, NCI-H82) [µM]	IC50 (NCI-H1688 cells; NCI-H1688) [µM]	IC50 (NCI-H446 cells; Homo sapiens, NCI-H446) [µM]	inhibitory effect on tumor volume growth compared with blank control (FIG. 1) ([1]; H446 CDX nude mice, intraperitoneal injection, 20 days)	animals survived ([1]; H446 CDX nude mice, intraperitoneal injection, 20 days, compound 8 and TP-0903 15 mg/kg once a day for 13 days, Cisplatin 2.5 mg/kg + Etoposide 4 mg/kg cycles)	body weight changes of nude mice (FIG. 2) ([1]; during the drug administration period, recovered rapidly after drug withdrawal)
> 10	C=CC(=O)N1CCN(c2nc(=O)n(-c3c(C)ccnc3C(C)C)c3nc(-c4c(O)cccc4F)c(F)cc23)[C@@H](C)C1 [AMG510]	> 10	> 10																
	N.N.[Cl][Pt][Cl] [Cisplatin]	0.885	3.21	2.15	3.89	1.76	14.1	0.559	11.1	5.46	31								
	CN1CCN(Cc2ccc(Nc3ncc(Cl)c(Nc4ccccc4S(=O)(=O)N(C)C)n3)cc2)CC1 [TP-0903]	0.21	0.0051						0.134	0.0943		0.0951	1.54	0.035	0.534	0.276	no significant inhibitory effect on tumor volume growth	11 of 12	no significant decrease in body weight
